Assay: xn = mol fraction of the nth substance listed
Details: 101 kPa

CCCCCC[n+]1ccn(C)c1.[I-] + [I-].[Li+]
Details | electrical conductivity, x1 = 0.32 [S/m] | electrical conductivity, x1 = 0.59 [S/m] | viscosity, x1 = 0.32 [mPa·s] | viscosity, x1 = 0.59 [mPa·s] | viscosity, x1 = 1 [mPa·s]
288.1 K | 0.0025 | 0.0002 | – | – | –
293 K | 0.0046 | 0.0005 | – | – | 2633
298.1 K | 0.0086 | – | – | – | 1742
303 K | 0.011 | 0.0019 | – | 7760 | –
308.1 K | 0.0189 | – | – | – | 802
313 K | 0.032 | 0.0054 | – | 2420 | 564
318.1 K | 0.0536 | 0.0086 | – | 1470 | 405
323 K | 0.0894 | 0.0133 | – | 989 | 279
328.1 K | 0.145 | 0.0206 | – | 682 | –
333 K | – | 0.0301 | – | 491 | 164
338.1 K | – | 0.0428 | – | 359 | 123.6
343 K | 0.504 | 0.0601 | 380 | 272 | 100.4
348.1 K | – | 0.082 | – | 219 | 79.9
353 K | 0.842 | 0.109 | 225 | 179 | 64.6
358.1 K | 1.04 | 0.142 | 177 | 144.7 | 52.1
363 K | 1.27 | 0.182 | 144.7 | 119.9 | 42
368.1 K | 1.61 | 0.232 | 124.1 | 101.5 | –
373 K | – | 0.287 | – | – | –

From a compilation of properties of binary mixtures (doi:10.1016/j.molliq.2014.07.031)
